Results taken from patent US9371295B2, “Compounds for use in the treatment of disorders that are ameliorated by inhibition of HDAC” (IRBM—Science Park S.p.A., priority 2012, dated 2016).

Assays:
[1] = tested on: human γ-globin promoter (EGFP reporter) in K562 cells; experiment: HbF activation assay on K562 (EGFP/RFP reporter model system for screening of inducers of fetal hemoglobin); assay type: cell-based; details: 60 hours
Excerpt: In order to test several compounds, a model system was produced based on previous findings present in the literature. The K562 erythroid-like cell lines, isolated and characterized by Lozzio & Lozzio (Blood, 45(3), pp 321-334) from a patient with chronic myelogenous leukemia in blast crisis, have been extensively employed as a useful in vitro model to study the molecular mechanism(s) regulating the expression of embryonic and fetal human globin genes, as well as for screening of new differentiation-inducing compounds. A stable cell line where reporter genes encoding green EGFP and far-red fluorescent protein red-FP are placed under the control of the human γ-globin or β-globin promoters respectively was used (see Vadolas et al, Hum. Mol. Genet. 2004, 13, 2, 223-233 for details). The modified 3-cluster also contains the upstream regulatory region called LCR. This cell line grows in suspension at 37° C. and 5% CO2 in humidified atmosphere in the following medium: DMEM, 10% foetal bovine serum, glutamine and antibiotics (penicillin and streptomycin);
The assay procedures is as follows: • Single concentration compounds or serially diluted samples are transferred to an empty assay plates by a spotter (ATS-100, EDC Biosystems, USA) in order to have a final concentration of DMSO of 0.25% in 50 μL of cell culture. Source plats contains compounds dissolved in 100% DMSO • Black, transparent bottom, 384 wells, tissue culture treated plates are used as assay plates. • Assay plates containing spotted compounds are filled with a suspension of cell in the described assay medium. The final cell concentration is of 1000 cells per well. • Cells are incubated in humidified atmosphere, 37° C.-5% CO2, for 60 hours • Cell nuclei are stained by adding 10 ul (6 μM; 1 μM final) Hoechst 33342 (Life Technologies, USA) • The cell associated intensity is read by a plate based cytometer (ACUMEN explorer, TTP Labtech, UK) • The nuclei count is used to assess the cell proliferation/death and to normalize the total EGFP/RFP intensity. HbF Activation Assay in Human Cell Line K562
The compounds of the invention were tested in the HbF activation assay on K562, as model system for screening of potential inducers of fetal hemoglobin.

HDAC in Hela cells = experiment: HDAC Hela Cell Based assay
HDAC1 = molecular target: T1, HDAC1 (Homo sapiens, UniProt Q13547); experiment: HDAC1 assay (Fluor-de-Lys fluorescent deacetylase assay); assay type: biochemical; details: read-out: hHDAC IC50
T1 construct: made in house
T1 sequence (Q13547 whole entry): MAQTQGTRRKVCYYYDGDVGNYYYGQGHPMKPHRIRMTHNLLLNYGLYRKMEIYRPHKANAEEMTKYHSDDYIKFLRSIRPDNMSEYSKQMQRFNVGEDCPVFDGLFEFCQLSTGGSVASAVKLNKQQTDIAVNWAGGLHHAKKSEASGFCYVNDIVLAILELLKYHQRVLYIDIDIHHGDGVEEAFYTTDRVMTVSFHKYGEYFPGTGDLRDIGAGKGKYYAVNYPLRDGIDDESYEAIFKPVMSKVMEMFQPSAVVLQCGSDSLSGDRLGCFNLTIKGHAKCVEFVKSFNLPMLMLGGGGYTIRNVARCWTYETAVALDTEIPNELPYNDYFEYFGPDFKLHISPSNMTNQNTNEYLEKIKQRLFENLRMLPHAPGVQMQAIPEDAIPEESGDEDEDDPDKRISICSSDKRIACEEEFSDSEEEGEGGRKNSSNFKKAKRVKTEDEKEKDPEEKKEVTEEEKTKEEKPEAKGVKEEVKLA
Experimental: The HDAC1 assay is used to quantify the histone deacetylase (HDAC) activity. The assay is performed in 384 well microtiter plates by pre-incubating serial dilutions of the compounds with a fixed concentration of HeLa nuclear extract or purified HDAC1 and then adding an acetylated lysine-containing substrate/developer that fluoresces upon deacetylation.
Reagents of the HDAC Fluorescent Activity Assay are purchased from BioMol Research Laboratories (Plymouth Meeting, Pa.) and feature the Fluor-de-Lys™ Substrate/Developer System.
TSA Stock: TSA is provided as a 10 mM stock solution in 100% dimethylsulfoxide (DMSO). […] The final concentration in the assay is 20 uM.
3 uM [final] TSA to this solution increases its ability to stop the reaction.
HDAC1 Working Solution: The HDAC1 enzyme is diluted in assay buffer prior to each use from a fresh aliquot of enzyme. The final concentration in the assay is 1-2 nM.
Compounds: Test compounds are directly transferred from a 100% DMSO solution into assay plates by spotting nanoliters of solutions by an acoustic dispenser (ATS-100, EDC biosystems, US).
HeLa cells transiently transfected with pCDNA3-HDAC1-FLAG are grown to 80% confluence on 10 cm culture dishes in DMEM, 10% Fetal bovine serum supplemented with antibiotics and glutamine. Cells are washed with 10 ml cold PBS and scraped into 2 ml of PBS. Cells are centrifuged for 5 minutes at 800×g at 4° C., washed with 30 ml PBS and resuspended in 10 ml PBS, counted, re-centrifuged and frozen at −80° C.
The frozen cell pellet is re-suspended in 1 ml of hypotonic lysis buffer (LB: 20 mM Hepes pH7.9, 0.25 mM EDTA, 10% glycerol) containing COMPLETE protease inhibitor and incubated on ice for 15 minutes, followed by homogenization on a 2-ml DounceB homogenizer (25 strokes). 150 mM KCl and 0.5% NP-40 are added to the homogenate and the solution is sonicated twice for 30 seconds (output5/6, duty cycle 90) and incubated for 1 hour at 4° C. After a 30 minutes centrifugation at 12000 rpm and 4° C. the supernatant (soluble extract) is collected and protein concentration is determined using the BIORAD assay.
Anti-FLAG M2 affinity resin (Sigma) is washed three times with TBS and twice with LB. 10 μl of the LB-washed resin/mg of protein (2-3 ug of Flagged-HDAC1) are added to the soluble extract (1 mL) and incubated overnight at 4° C. with gentle mixing. The resin is then collected by centrifugation, washed once with LB, twice with LB+0.1% NP40 and twice with elution buffer (50 mM Hepes pH 7.4, 5% glycerol, 100 mM KCl, 0.01% Triton X-100).
The concentration of purified HDAC is determined by Western blot analysis.

SMILES: CCC(=O)CCCCC[C@H](NC(=O)Cn1nc(C)cc1C)c1ncc(-c2cc3ccccc3nc2OC)o1 [Compound 81, (S)-2-(3,5-dimethyl-1H-pyrazol-1-yl)-N-(1-(5-(2-methoxyquinolin-3-yl)oxazol-2-yl)-7-oxononyl)acetamide]
- EC50 [1]: > 1 µM
- IC50 (HDAC in Hela cells): 0.1 to 1 µM
- IC50 (HDAC1): < 0.1 µM

SMILES: CCC(=O)CCCCC[C@H](NC(=O)C1CCN(C)CC1)c1nnc(-c2cc3ccccc3nc2OC)o1 [Compound 47, (S)-N-(1-(5-(2-methoxyquinolin-3-yl)-1,3,4-oxadiazol-2-yl)-7-oxononyl)-1-methylpiperidine-4-carboxamide]
- EC50 [1]: 0.1 to 1 µM
- IC50 (HDAC in Hela cells): 0.1 to 1 µM
- IC50 (HDAC1): < 0.1 µM

SMILES: CCC(=O)CCCCC[C@H](NC(=O)C1CN(C(C)=O)C1)c1ncc(-c2cc3ccccc3nc2OC)o1 [Compound 55, (S)-1-acetyl-N-(1-(5-(2-methoxyquinolin-3-yl)oxazol-2-yl)-7-oxononyl)azetidine-3-carboxamide]
- EC50 [1]: > 1 µM
- IC50 (HDAC in Hela cells): 0.1 to 1 µM
- IC50 (HDAC1): < 0.1 µM

SMILES: CCC(=O)CCCCC[C@H](NC(=O)C(C)(C)N(C)C)c1ncc(-c2cc3ccccc3nc2OC)o1 [Compound 35, (S)-2-(dimethylamino)-N-(1-(5-(2-methoxyquinolin-3-yl)oxazol-2-yl)-7-oxononyl)-2-methylpropanamide]
- EC50 [1]: 0.1 to 1 µM
- IC50 (HDAC in Hela cells): < 0.1 µM
- IC50 (HDAC1): < 0.1 µM

SMILES: CCC(=O)CCCCC[C@H](NC(=O)[C@H](CC(F)(F)F)N(C)C)c1ncc(-c2cc3ccccc3nc2OC)o1 [Compound 63, (S)-2-(dimethylamino)-4,4,4-trifluoro-N-((S)-1-(5-(2-methoxyquinolin-3-yl)oxazol-2-yl)-7-oxononyl)butanamide]
- EC50 [1]: > 1 µM
- IC50 (HDAC in Hela cells): > 1 µM
- IC50 (HDAC1): 0.1 to 1 µM

SMILES: CCC(=O)CCCCC[C@H](NC(=O)C1CN(C)C1)c1ncc(-c2ccc(-c3ccn[nH]3)cc2)o1 [Compound 53, (S)-N-(1-(5-(4-(1H-pyrazol-5-yl)phenyl)oxazol-2-yl)-7-oxononyl)-1-methylazetidine-3-carboxamide]
- EC50 [1]: > 1 µM
- IC50 (HDAC in Hela cells): 0.1 to 1 µM
- IC50 (HDAC1): < 0.1 µM

SMILES: CCC(=O)CCCCC[C@H](NC(=O)[C@@H]1CSC(=O)N1)c1ncc(-c2ccccc2)o1 [Compound 13, (R)-2-oxo-N-((S)-7-oxo-1-(5-phenyloxazol-2-yl)nonyl)thiazolidine-4-carboxamide]
- EC50 [1]: > 1 µM
- IC50 (HDAC in Hela cells): > 1 µM
- IC50 (HDAC1): < 0.1 µM

SMILES: CCC(=O)CCCCC[C@H](NC(=O)C1CN(Cc2ccccc2)C1)c1ncc(-c2cc3ccccc3nc2OC)o1 [Compound 56, (S)-1-benzyl-N-(1-(5-(2-methoxyquinolin-3-yl)oxazol-2-yl)-7-oxononyl)azetidine-3-carboxamide]
- EC50 [1]: > 1 µM
- IC50 (HDAC in Hela cells): 0.1 to 1 µM
- IC50 (HDAC1): < 0.1 µM

SMILES: CCC(=O)CCCCC[C@H](NC(=O)[C@@H]1CC(F)(F)CN1C)c1ncc(-c2cc3ccccc3nc2OC)o1 [Compound 58, (S)-4,4-difluoro-N-((S)-1-(5-(2-methoxyquinolin-3-yl)oxazol-2-yl)-7-oxononyl)-1-methylpyrrolidine-2-carboxamide]
- EC50 [1]: > 1 µM
- IC50 (HDAC in Hela cells): 0.1 to 1 µM
- IC50 (HDAC1): < 0.1 µM

SMILES: CCC(=O)CCCCC[C@H](NC(=O)c1ccnc(Cl)c1)c1ncc(-c2ccccc2)o1 [Compound 14, (S)-2-chloro-N-(7-oxo-1-(5-phenyloxazol-2-yl)nonyl)isonicotinamide]
- EC50 [1]: > 1 µM
- IC50 (HDAC in Hela cells): > 1 µM
- IC50 (HDAC1): 0.1 to 1 µM

SMILES: CCC(=O)CCCCC[C@H](NC(=O)c1sc(C)nc1C)c1ncc(-c2cc3ccccc3nc2OC)o1 [Compound 83, (S)-N-(1-(5-(2-methoxyquinolin-3-yl)oxazol-2-yl)-7-oxononyl)-2,4-dimethylthiazole-5-carboxamide]
- EC50 [1]: > 1 µM
- IC50 (HDAC in Hela cells): 0.1 to 1 µM
- IC50 (HDAC1): < 0.1 µM

SMILES: CCC(=O)CCCCC[C@H](NC(=O)C1CCCCCN1C)c1ncc(-c2ccccc2)o1 (stereo partly drawn) [Compound 21, 1-methyl-N-((S)-7-oxo-1-(5-phenyloxazol-2-yl)nonyl)azepane-2-carboxamide]
- EC50 [1]: > 1 µM
- IC50 (HDAC in Hela cells): > 1 µM
- IC50 (HDAC1): 0.1 to 1 µM

SMILES: CCC(=O)CCCCC[C@H](NC(=O)CCn1c(CC)nc2ccccc21)c1ncc(-c2cc3ccccc3nc2OC)o1 [Compound 29, (S)-3-(2-ethyl-1H-benzo[d]imidazol-1-yl)-N-(1-(5-(2-methoxyquinolin-3-yl)oxazol-2-yl)-7-oxononyl)propanamide]
- EC50 [1]: 0.1 to 1 µM
- IC50 (HDAC in Hela cells): < 0.1 µM
- IC50 (HDAC1): < 0.1 µM

SMILES: CCC(=O)CCCCC[C@H](NC(=O)Cc1c(C)[nH]c2ccc(OC)cc12)c1ncc(-c2cc3ccccc3nc2OC)o1 [Compound 1, (S)-2-(5-methoxy-2-methyl-1H-indol-3-yl)-N-(1-(5-(2-methoxyquinolin-3-yl)oxazol-2-yl)-7-oxononyl)acetamide]
- EC50 [1]: > 1 µM
- IC50 (HDAC in Hela cells): 0.1 to 1 µM
- IC50 (HDAC1): < 0.1 µM

SMILES: CCC(=O)CCCCC[C@H](NC(=O)CCN(C)C)c1ncc(-c2ccccc2)o1 [Compound 7, (S)-3-(dimethylamino)-N-(7-oxo-1-(5-phenyloxazol-2-yl)nonyl)propanamide]
- EC50 [1]: > 1 µM
- IC50 (HDAC in Hela cells): > 1 µM
- IC50 (HDAC1): < 0.1 µM

SMILES: CCC(=O)CCCCC[C@H](NC(=O)Cc1c(C)[nH]c2ccc(OC)cc12)c1nnc(-c2cc3ccccc3nc2OC)o1 [Compound 48, (S)-2-(5-methoxy-2-methyl-1H-indol-3-yl)-N-(1-(5-(2-methoxyquinolin-3-yl)-1,3,4-oxadiazol-2-yl)-7-oxononyl)acetamide]
- EC50 [1]: > 1 µM
- IC50 (HDAC in Hela cells): < 0.1 µM
- IC50 (HDAC1): < 0.1 µM

SMILES: CCC(=O)CCCCC[C@H](NC(=O)Cn1cc2ccccc2n1)c1ncc(-c2cc3ccccc3nc2OC)o1 [Compound 88, (S)-2-(2H-indazol-2-yl)-N-(1-(5-(2-methoxyquinolin-3-yl)oxazol-2-yl)-7-oxononyl)acetamide]
- EC50 [1]: > 1 µM
- IC50 (HDAC in Hela cells): 0.1 to 1 µM
- IC50 (HDAC1): < 0.1 µM

SMILES: CCC(=O)CCCCC[C@H](NC(=O)CN1CCN(C)CC1)c1ncc(-c2ccccc2)o1 [Compound 15, (S)-2-(4-methylpiperazin-1-yl)-N-(7-oxo-1-(5-phenyloxazol-2-yl)nonyl)acetamide]
- EC50 [1]: > 1 µM
- IC50 (HDAC in Hela cells): > 1 µM
- IC50 (HDAC1): 0.1 to 1 µM

SMILES: CCC(=O)CCCCC[C@H](NC(=O)c1cccnc1)c1ncc(-c2cc3ccccc3nc2OC)o1 [Compound 91, (S)-N-(1-(5-(2-methoxyquinolin-3-yl)oxazol-2-yl)-7-oxononyl)nicotinamide]
- EC50 [1]: 0.1 to 1 µM
- IC50 (HDAC in Hela cells): 0.1 to 1 µM
- IC50 (HDAC1): < 0.1 µM

SMILES: CCC(=O)CCCCC[C@H](NC(=O)c1cncs1)c1nnc(-c2cc3ccccc3nc2OC)o1 [Compound 49, (S)-N-(1-(5-(2-methoxyquinolin-3-yl)-1,3,4-oxadiazol-2-yl)-7-oxononyl)thiazole-5-carboxamide]
- EC50 [1]: > 1 µM
- IC50 (HDAC in Hela cells): 0.1 to 1 µM
